From EP0236939A1, “Derivatives of 5-acyloxy-13-beta-alkyl milbemicyne against parasites in animals and plants” (CIBA-GEIGY AG, priority 1986, dated 1987)
Like-named read-outs stand apart in the source and are kept apart here.

Assays:
Spodoptera littoralis = assay: B-1 insecticidal stomach-poison action on Spodoptera littoralis (sprayed cotton plants); assay type: in vivo; conditions: Wirkstoffkonzentration 3 ppm; nach 24 Stunden; L1 larvae on sprayed cotton plants
Method: Eingetopfte Baumwollpflanzen im 5-Blatt-Stadium werden mit einer acetonisch/wässrigen Versuchslösung besprüht, die 3, 12,5 oder 50 ppm der zu prüfenden Verbindung enthält.
Nach dem Antrocknen des Belags werden die Pflanzen mit ca. 30 Larven (L₁-Stadium) von Spodoptera littoralis besetzt. Pro Versuchsverbindung und pro Test-Spezies verwendet man zwei Pflanzen. Der Versuch wird bei ca. 24°C und 60 % relativer Luftfeuchtigkeit durchgeführt. Auswertungen und Zwischenauswertungen auf moribunde Tiere, Wachstum und Larven und Frassschäden erfolgen nach 24 Stunden, 48 Stunden und 72 Stunden.

Aphis craccivora = assay: B-6 contact action on Aphis craccivora (sprayed pea seedlings); assay type: in vivo; conditions: 12,5 ppm, after 3 days; for mortality at 12.5 ppm: Aphis craccivora, 72 h, read-out: Abtötung
Source text: Erbsenkeimlinge, die mit sämtlichen Entwicklungsstadien der Laus infiziert sind, werden mit einer aus einem Emulsionskonzentrat hergestellten Wirkstofflösung besprüht, die wahlweise 50 ppm, 25 ppm oder 12,5 ppm Wirkstoff enthält. Nach 3 Tagen wird auf mehr als 80 % tote bzw. abgefallene Blattläuse ausgewertet. Nur bei dieser Wirkungshöhe wird ein Präparat als wirksam eingestuft.

[1] = tested on: L₁-Larven von Lucilia sericata; assay: B-3 action against L1 larvae of Lucilia sericata (larval culture medium); assay type: in vivo; conditions: after 4 days; for Wirkung (Mortalitätsrate): 100 ppm; for mortality at 100 ppm: Lucilia sericata, 96 h, read-out: Wirkung (Mortalitätsrate)
Method: 1 ml einer wässrigen Suspension der zu prüfenden Aktivsubstanz werden so mit 3 ml eines speziellen Larvenzuchtmediums bei ca. 50°C vermischt, dass ein Homogenisat von wahlweise 250 ppm oder 100 ppm Wirkstoffgehalt entsteht. In jede Reagenzglas-Probe werden ca. 30 Lucilia-Larven (L₁) eingesetzt. Nach 4 Tagen wird die Mortalitätsrate bestimmt. Verbindungen der Formel I aus den Tabellen, wie z.B. die Verbindungen Nr. 2.8, 2.17, 2.31, 2.33, 2.35, 2.43, 2.1, 2.18 und 2.45 erzielten mit 100 ppm eine Wirkung von 100 %.

Dermanyssus gallinae = assay: B-9 miticidal action against Dermanyssus gallinae; assay type: in vivo; conditions: for Wirkung (Mortalität): 4320 min; for mortality at 100 ppm: Dermanyssus gallinae, 72 h, read-out: Wirkung (Mortalität)
Method: 2 bis 3 ml einer Testlösung (100, 10, 1 und 0,1 ppm Aktivsubstanz) werden in einen nach oben offenen Glasbehälter gegeben und ca. 200 Milben in unterschiedlichen Entwicklungsstadien in diesen Behälter eingesetzt. Der Glasbehälter wird mit einem Wattebausch verschlossen und 10 Minuten gleichmässig, bis zur vollständigen Benetzung der Milben geschüttelt. Danach wird der Behälter umgekehrt hingestellt, bis die überschüssige Testlösung von der Watte aufgesogen ist. Der Behälter wird erneut gekehrt und die behandelten […] zur Evaluierung der Wirksamkeit der Testsubstanzen drei Tage unter Laborbedingungen beobachtet, wobei die Mortalität als Massstab für Wirksamkeit herangezogen wird.

[2] = tested on: Haemonchus concortus und Trichostrongylus colubriformis; assay: B-5 test on sheep infected with nematodes (worm egg count in faeces); assay type: in vivo, Schafe; conditions: 0,2 mg/kg, single dose by stomach tube or intraruminal injection; compared with untreated infected sheep
Method: Der Wirkstoff wird als Suspension formuliert mit einer Magensonde oder durch Injektion in den Pansen eines Schafes gegeben, das mit Haemonchus concortus und Trychostrongylus colubriformis künstlich infiziert worden ist. Pro Dosis werden 1 bis 3 Tiere verwendet. Jedes Schaf wird nur einmal mit einer einzigen Dosis behandelt, und zwar wahlweise mit 0,5 mg oder 0,2 mg/kg Körpergewicht. Die Evaluierung erfolgt durch Vergleich der Anzahl der vor und nach Behandlung im Kot der Schafe ausgeschiedenen Wurmeier.
Gleichzeitig und gleichartig infizierte aber unbehandelte Schafe dienen als Kontrolle.

Aedes aegypti = assay: B-7 larvicidal action against Aedes aegypti; assay type: in vivo; conditions: 1,6 ppm; nach einem Tag
Method: Auf die Oberfläche von 150 ml Wasser, das sich in einem Behälter befindet, wird soviel einer 0,1 %igen acetonischen Lösung des Wirkstoffes pipettiert, dass Konzentrationen von wahlweise 10 ppm, 3,3 ppm und 1,6 ppm erhalten werden. Nach Verdunsten des Acetons wird der Behälter mit ca. 30-40 3 Tage alten Aedes-Larven beschickt. Nach 1, 2 und 5 Tagen wird die Mortalität geprüft.

[3] = tested on: OP-sensible Tetranychus urticae; assay: B-2 action against plant-damaging acarids, OP-sensitive Tetranychus urticae (sprayed bean plants); assay type: in vivo; conditions: Wirkstoffkonzentration 0,4 ppm; evaluated after seven days; all mite stages on bean plants
Method: Die Primärblätter von Bohnenpflanzen (Phaseolus vulgaris) werden 16 Stunden vor dem Versuch mit einem durch T. urticae infestierten, aus einer Massenzucht stammenden Blattstück belegt. Die so mit allen Milben-Stadien infestierten Pflanzen werden nach Entfernung des Blattstücks mit einer Versuchslösung bis zur Tropfnässe besprüht, die wahlweise 0,4 ppm oder 1,6 ppm der zu prüfenden Verbindung enthält. Die Temperatur in der Gewächshauskabine beträgt ca. 25°C.
Nach sieben Tagen wird unter dem Binokular auf Prozentsatz mobiler Stadien (Adulte und Nymphen) und auf vorhandene Eier ausgewertet.

[4] = tested on: Boophilus microplus (Biarra-Stamm); assay: B-4 acaricidal action against Boophilus microplus (injection into engorged female ticks, IR90); assay type: in vivo; conditions: injection of 1, 0,1 or 0,01 µg per tick; dose of the result not stated
Method: Auf einer PVC-Platte wird waagrecht ein Klebstreifen so befestigt, das darauf 10 mit Blut vollgesogene Zecken-Weibchen von Boophilus microplus (Biarra-Stamm) nebeneinander in einer Reihe mit dem Rücken aufgeklebt werden können. Jeder Zecke wird mit einer Injektionsnadel 1 µl einer Flüssigkeit injiziert, die eine 1:1-Mischung von Polyethylenglykol und Aceton darstellt und in der eine bestimmte Wirkstoffmenge von wahlweise 1, 0,1 oder 0,01 µg pro Zecke gelöst ist. Kontrolltiere erhalten eine wirkstofffreie Injektion. Nach der Behandlung werden die Tiere unter Normalbedingungen in einem Insektarium bei ca. 28°C und 80 % relativer Luftfeuchtigkeit gehalten, bis die Eiablage erfolgt und die Larven aus den Eiern der Kontrolltiere geschlüpft sind.
Die Aktivität einer geprüften Substanz wird mit der IR₉₀ bestimmt, d.h. es wird jene Wirkstoffdosis ermittelt, bei der noch nach 30 Tagen 9 von 10 Zeckenweibchen (= 90 %) Eier ablegen, die nicht schlupffähig sind.

Meloidogyne incognita = assay: B-8 soil-nematicidal action against Meloidogyne incognita (tomato plants, root-knot index); assay type: in vivo; conditions: 0,002 % Aktivsubstanz based on soil volume; after 4 weeks; untreated infected controls = 100 %
Method: Eier von Meloidogyne incognita werden in Sand eingemischt. Dieses Gemisch wird dann in 200 ml fassende Tontöpfe eingebracht (5000 Eier pro Topf). Am gleichen Tag wird pro Topf eine 3 Wochen alte Tomatenpflanze gepflanzt und der formulierte Wirkstoff mittels Druckapplikation in die Töpfe hineingegeben (0,002 % Aktivsubstanz bezogen auf das Bodenvolumen). Die eingetopften Pflanzen werden nun bei einer Temperatur von 26±1°C und einer relativen Luftfeuchtigkeit von 60 % in einem Gewächshaus aufgestellt. Nach Ablauf von 4 Wochen erfolgt eine Evaluierung durch Untersuchung der Pflanzen auf Wurzelgallbildung nach dem sogenannten Wurzelgall-Index ("Knot Index")

[5] = 100 ppm, observed for three days

Row | Compound | Abtötung (Spodoptera littoralis) | Nematodenbefall (Reduktion der Wurmeier im Kot) [2] | Abtötung sämtlicher Larven (Aedes aegypti) | mortality at 100 ppm [1] | mortality at 12.5 ppm (Aphis craccivora) | mortality at 100 ppm (Dermanyssus gallinae; [5]) | other results
1 | 5-O-(1,2,4-Trizaol-1-yl)acetyl-13β-methyl-milbemycin A₄-Zink(II)-Komplex [Verbindung 2.35] | vollständige Abtötung | keinen Nematodenbefall | – | – | – | – | Abtötung (Aphis craccivora): 100%; Wirkung (Mortalitätsrate) [1]: 100%; Wirkung (Mortalität) (Dermanyssus gallinae; [5]): 100%
2 | 5-O-(3,4-Dihydro-2H-pyran-2-yl)carboxyacetyl-13β-methyl-milbemycin A₄ [Verbindung 2.31] | – | keinen Nematodenbefall | vollständige Abtötung | – | – | – | Wirkung (Mortalitätsrate) [1]: 100%; Wirkung (Mortalität) (Dermanyssus gallinae; [5]): 100%
3 | CC[C@H]1O[C@]2(CC[C@@H]1C)C[C@@H]1C[C@@H](C/C=C(\C)[C@H](C)[C@@H](C)/C=C/C=C3\CO[C@@H]4[C@H](OC(C)=O)C(C)=C[C@@H](C(=O)O1)[C@]34O)O2 [Verbindung 2.1, 5-O-Acetyl-13β-methyl-milbemycin A₄] | – | keinen Nematodenbefall | vollständige Abtötung | 100% | – | – | –
4 | CC[C@H]1O[C@]2(CC[C@@H]1C)C[C@@H]1C[C@@H](C/C=C(\C)[C@H](C)[C@@H](C)/C=C/C=C3\CO[C@@H]4[C@H](OC(=O)CCl)C(C)=C[C@@H](C(=O)O1)[C@]34O)O2 [Verbindung 2.8, 5-O-Chloracetyl-13β-methyl-milbemycin A₄] | vollständige Abtötung | keinen Nematodenbefall | vollständige Abtötung | 100% | 100% | 100% | Abtötung [3]: vollständige Abtötung; Wirkung (IR₉₀) [4]: sehr gute Wirkung
5 | CC[C@H]1O[C@]2(CC[C@@H]1C)C[C@@H]1C[C@@H](C/C=C(\C)[C@H](C)[C@@H](C)/C=C/C=C3\CO[C@@H]4[C@H](OC(=O)COC(C)=O)C(C)=C[C@@H](C(=O)O1)[C@]34O)O2 [Verbindung 2.17, 5-O-Acetoxy-acetyl-13β-methyl-milbemycin A₄] | – | keinen Nematodenbefall | vollständige Abtötung | 100% | 100% | 100% | Abtötung [3]: vollständige Abtötung; Restbefall (Wurzelgallbildung) (Meloidogyne incognita): 0-10%
6 | CC[C@H]1O[C@]2(CC[C@@H]1C)C[C@@H]1C[C@@H](C/C=C(\C)[C@H](CC)[C@@H](C)/C=C/C=C3\CO[C@@H]4[C@H](OC(=O)COC(C)=O)C(C)=C[C@@H](C(=O)O1)[C@]34O)O2 [Verbindung 2.18, 5-O-Acetoxy-acetyl-13β-ethyl-milbemycin A₄] | – | keinen Nematodenbefall | vollständige Abtötung | 100% | – | – | Restbefall (Wurzelgallbildung) (Meloidogyne incognita): 0-10%
7 | CC[C@H]1O[C@]2(CC[C@@H]1C)C[C@@H]1C[C@@H](C/C=C(\C)[C@H](C)[C@@H](C)/C=C/C=C3\CO[C@@H]4[C@H](OC(=O)Cn5cncn5)C(C)=C[C@@H](C(=O)O1)[C@]34O)O2 [Verbindung 2.33, 5-O-(1,2,4-Triazol-1-yl)-acetyl-13β-methyl-milbemycin A₄] | vollständige Abtötung | keinen Nematodenbefall | vollständige Abtötung | 100% | 100% | 100% | Restbefall (Wurzelgallbildung) (Meloidogyne incognita): 0-10%; Wirkung (IR₉₀) [4]: sehr gute Wirkung
8 | CC[C@H]1O[C@]2(CC[C@@H]1C)C[C@@H]1C[C@@H](C/C=C(\C)[C@H](C)[C@@H](C)/C=C/C=C3\CO[C@@H]4[C@H](OC(=O)COC)C(C)=C[C@@H](C(=O)O1)[C@]34O)O2 [Verbindung 2.43, 5-O-Methoxyacetyl-13β-methyl-milbemycin A₄] | vollständige Abtötung | keinen Nematodenbefall | vollständige Abtötung | 100% | 100% | – | Abtötung [3]: vollständige Abtötung
9 | CC[C@H]1O[C@]2(CC[C@@H]1C)C[C@@H]1C[C@@H](C/C=C(\C)[C@H](C)[C@@H](C)/C=C/C=C3\CO[C@@H]4[C@H](OC(=O)COC(=O)c5cccc(Cl)c5)C(C)=C[C@@H](C(=O)O1)[C@]34O)O2 [Verbindung 2.44, 5-O-(3-Chlorbenzoyloxy)-acetyl-13β-methyl-milbemycin A₄] | – | keinen Nematodenbefall | – | – | – | – | –
10 | CC[C@H]1O[C@]2(CC[C@@H]1C)C[C@@H]1C[C@@H](C/C=C(\C)[C@H](CC)[C@@H](C)/C=C/C=C3\CO[C@@H]4[C@H](OC(=O)CCl)C(C)=C[C@@H](C(=O)O1)[C@]34O)O2 [Verbindung 2.45] | – | keinen Nematodenbefall | – | 100% | – | – | –
11 | CC[C@H]1O[C@]2(CC[C@@H]1C)C[C@@H]1C[C@@H](C/C=C(\C)[C@H](C)[C@@H](C)/C=C/C=C3\CO[C@@H]4[C@H](OC(=O)COCOC)C(C)=C[C@@H](C(=O)O1)[C@]34O)O2 [Verbindung 2.48] | – | – | – | – | – | 100% | –
12 | CC[C@H]1O[C@]2(CC[C@@H]1C)C[C@@H]1C[C@@H](C/C=C(\C)[C@H](C)[C@@H](C)/C=C/C=C3\CO[C@@H]4[C@H](OC(=O)COc5ccccc5)C(C)=C[C@@H](C(=O)O1)[C@]34O)O2 [Verbindung 2.53] | – | keinen Nematodenbefall | – | – | – | – | –
13 | CC[C@H]1O[C@]2(CC[C@@H]1C)C[C@@H]1C[C@@H](C/C=C(\C)[C@H](C)[C@@H](C)/C=C/C=C3\CO[C@@H]4[C@H](OC(=O)COS(=O)(=O)c5ccc(C)cc5)C(C)=C[C@@H](C(=O)O1)[C@]34O)O2 [Verbindung 2.55] | – | – | – | – | – | – | mortality at 100 ppm (Dermanyssus gallinae): 100%
